US8304447B2, “2-acylaminopropoanol-type glucosylceramide synthase inhibitors” (Genzyme Corporation, priority 2007, dated 2012)

Tested on: GM3
Assay: GM3 Elisa assay
Type: cell-based
Conditions: 48 h, Table 1; B16-FO cells, 2 days incubation; read-out: IC50_uM_Mean
Protocol: B16-FO cells from ATCC (American Tissue Culture Collection) were grown in DMEM media (ATCC) with 10% Fetal Bovine Serum (Hyclone) and Pen/Step/Glutamine (Biowhittaker). 4000 cells per well were plated on collagen coated plates (BD) and allowed to attach for 6 hours in an incubator (37 degrees, 5% CO2). After 6 hours the compounds and controls were added to the wells, the plates mixed and returned to the incubator for 2 days. Day of assay the cells were fixed for 20 minutes with 1% formaldehyde and then washed with Tris Buffered Saline (TBS) 3 times, 150 μl of TBS was left in the wells and 50 μl of goat serum (Invitrogen) was added, the plates mixed and incubated for 1 hour at room temperature. The plates were flicked and the cells incubated with the monoclonal Antibody to GM3 (NeuAc) (Cosmo) for 45 minutes as room temperature. The plates were then washed 3 times with TBS, leaving 150 μl of TBS in the wells and Peroxidase AffinPure F (ab′) 2 frag Gt Anti-mouse IgM, μ Chain Specific (Jackson Immuno Research) was added in 50 μl, the plates mixed and incubated for 45 minutes at room temperature. The plates were washed 3 times with TBS, flicked and blotted and 100 μl of Quantablu (Pierce) was added to the wells and incubated for 1 hour then read on a Fluorometer at Ex 325 and Em 420. The data was then analyzed using standard programs.

SMILES: O=C(Cc1cccc(C(F)(F)F)c1)N[C@H](CN1CCCC1)[C@H](O)c1ccc2c(c1)OCCO2 [Compound 51, N-((1R,2R)-1-(2,3-dihydrobenzo[β][1,4]dioxin-6-yl)-1-hydroxy-3-(pyrrolidin-1-yl)propan-2-yl)-2-(3-(trifluoromethyl)phenyl)acetamide]
- IC50: 100 to 1000 nM

SMILES: O=C(Cc1cccc(F)c1)N[C@H](CN1CCCC1)[C@H](O)c1ccc2c(c1)OCCO2 [Compound 53, N-((1R,2R)-1-(2,3-dihydrobenzo[β][1,4]dioxin-6-yl)-1-hydroxy-3-(pyrrolidin-1-yl)propan-2-yl)-2-(3-fluorophenyl)acetamide]
- IC50: 1000 to 3000 nM

SMILES: COc1cccc(OCCC(=O)N[C@H](CN2CCCC2)[C@H](O)c2ccc3c(c2)OCCO3)c1 [Compound 54, N-((1R,2R)-1-(2,3-dihydrobenzo[β][1,4]dioxin-6-yl)-1-hydroxy-3-(pyrrolidin-1-yl)propan-2-yl)-3-(3-methoxyphenoxy)propanamide]
- IC50: ≤ 100 nM

SMILES: O=C(CCOc1cc(Cl)ccc1Cl)N[C@H](CN1CCCC1)[C@H](O)c1ccc2c(c1)OCCO2 [Compound 55, 3-(2,5-dichlorophenoxy)-N-((1R,2R)-1-(2,3-dihydrobenzo[β][1,4]dioxin-6-yl)-1-hydroxy-3-(pyrrolidin-1-yl)propan-2-yl)propanamide]
- IC50: ≤ 100 nM

SMILES: O=C(CCOc1ccc(Cl)cc1)N[C@H](CN1CCCC1)[C@H](O)c1ccc2c(c1)OCCO2 [Compound 57, 3-(4-chlorophenoxy)-N-((1R,2R)-1-(2,3-dihydrobenzo[β][1,4]dioxin-6-yl)-1-hydroxy-3-(pyrrolidin-1-yl)propan-2-yl)propanamide]
- IC50: ≤ 100 nM

SMILES: O=C(CCOc1ccc(F)cc1)N[C@H](CN1CCCC1)[C@H](O)c1ccc2c(c1)OCCO2 [Compound 58, N-((1R,2R)-1-(2,3-dihydrobenzo[β][1,4]dioxin-6-yl)-1-hydroxy-3-(pyrrolidin-1-yl)propan-2-yl)-3-(4-fluorophenoxy)propanamide]
- IC50: 100 to 1000 nM

SMILES: Cc1ccc(OCCC(=O)N[C@H](CN2CCCC2)[C@H](O)c2ccc3c(c2)OCCO3)cc1 [Compound 59, N-((1R,2R)-1-(2,3-dihydrobenzo[β][1,4]dioxin-6-yl)-1-hydroxy-3-(pyrrolidin-1-yl)propan-2-yl)-3-(p-tolyloxy)propanamide]
- IC50: ≤ 100 nM

SMILES: O=C(CCOc1ccccc1F)N[C@H](CN1CCCC1)[C@H](O)c1ccc2c(c1)OCCO2 [Compound 60, N-((1R,2R)-1-(2,3-dihydrobenzo[β][1,4]dioxin-6-yl)-1-hydroxy-3-(pyrrolidin-1-yl)propan-2-yl)-3-(2-fluorophenoxy)propanamide]
- IC50: ≤ 100 nM

SMILES: COc1ccc(OCCC(=O)N[C@H](CN2CCCC2)[C@H](O)c2ccc3c(c2)OCCO3)cc1 [Compound 61, N-((1R,2R)-1-(2,3-dihydrobenzo[β][1,4]dioxin-6-yl)-1-hydroxy-3-(pyrrolidin-1-yl)propan-2-yl)-3-(4-methoxyphenoxy)propanamide]
- IC50: ≤ 100 nM

SMILES: COc1cccc(-c2ccc(CC(=O)N[C@H](CN3CCCC3)[C@H](O)c3ccc4c(c3)OCCO4)cc2)c1 [Compound 63, N-((1R,2R)-1-(2,3-dihydrobenzo[β][1,4]dioxin-6-yl)-1-hydroxy-3-(pyrrolidin-1-yl)propan-2-yl)-2-(3 methoxybiphenyl-4-yl)acetamide]
- IC50: ≤ 100 nM

SMILES: O=C(Cc1ccc(-c2cccc(Cl)c2)cc1)N[C@@H](CN1CCCC1)[C@@H](O)c1ccc2c(c1)OCCO2 [Compound 65, 2-(3′-chlorobiphenyl-4-yl)-N-((1R,2R)-1-(2,3-dihydrobenzo[β][1,4]dioxin-6-yl)-1-hydroxy-3-(pyrrolidin-1-yl)propan-2-yl)acetamide]
- IC50: ≤ 100 nM

SMILES: O=C(Nc1cccc(C(F)(F)F)c1)N[C@H](CN1CCCC1)[C@H](O)c1ccc2c(c1)OCCO2 [Compound 68, 1-((1R,2R)-1-(2,3-dihydrobenzo[β][1,4]dioxin-6-yl)-1-hydroxy-3-(pyrrolidin-1-yl)propan-2-yl)-3-(3-(trifluoromethyl)phenyl)urea]
- IC50: 100 to 1000 nM

SMILES: O=C(Nc1ccc2ccccc2c1)N[C@H](CN1CCCC1)[C@H](O)c1ccc2c(c1)OCCO2 [Compound 69, 1-((1R,2R)-1-(2,3-dihydrobenzo[β][1,4]dioxin-6-yl)-1-hydroxy-3-(pyrrolidin-1-yl)propan-2-yl)-3-(naphthalen-2-yl)urea]
- IC50: 100 to 1000 nM

SMILES: O=C(Nc1ccc(-c2ccccc2)cc1)N[C@H](CN1CCCC1)[C@H](O)c1ccc2c(c1)OCCO2 [Compound 70, 1-(biphenyl-4-yl)-3-((1R,2R)-1-(2,3-dihydrobenzo[β][1,4]dioxin-6-yl)-1-hydroxy-3-(pyrrolidin-1-yl)propan-2-yl)urea]
- IC50: ≤ 100 nM

SMILES: C[C@H](NC(=O)N[C@H](CN1CCCC1)[C@H](O)c1ccc2c(c1)OCCO2)c1cccc2ccccc12 [Compound 71, 1-((1R,2R)-1-(2,3-dihydrobenzo [β][1,4]dioxin-6-yl)-1-hydroxy-3-(pyrrolidin-1-yl)propan-2-yl)-3-((S)-1-(naphthalen-1-yl)ethyl)urea]
- IC50: 100 to 1000 nM

SMILES: COc1cccc(CNC(=O)N[C@H](CN2CCCC2)[C@H](O)c2ccc3c(c2)OCCO3)c1 [Compound 80, 1-((1R,2R)-1-(2,3-dihydrobenzo[β][1,4]dioxin-6-yl)-1-hydroxy-3-(pyrrolidin-1-yl)propan-2-yl)-3-(3-methoxybenzyl)urea]
- IC50: 100 to 1000 nM

SMILES: O=C(Nc1ccc(C(F)(F)F)cc1)N[C@H](CN1CCCC1)[C@H](O)c1ccc2c(c1)OCCO2 [Compound 81, 1-((1R,2R)-1-(2,3-dihydrobenzo[β][1,4]dioxin-6-yl)-1-hydroxy-3-(pyrrolidin-1-yl)propan-2-yl)-3-(4-(trifluoromethyl)phenyl)urea]
- IC50: 100 to 1000 nM

SMILES: O=C(Nc1ccc(OC(F)(F)F)cc1)N[C@H](CN1CCCC1)[C@H](O)c1ccc2c(c1)OCCO2 [Compound 82, 1-((1R,2R)-1-(2,3-dihydrobenzo[β][1,4]dioxin-6-yl)-1-hydroxy-3-(pyrrolidin-1-yl)propan-2-yl)-3-(4-(trifluoromethoxy)phenyl)urea]
- IC50: ≤ 100 nM

SMILES: O=C(COc1ccc(Cl)cc1)N[C@H](CN1CCCC1)[C@H](O)c1ccc2c(c1)OCCO2 [Compound 83, 2-(4-chlorophenoxy)-N-((1R,2R)-1-(2,3-dihydrobenzo[β][1,4]dioxin-6-yl)-1-hydroxy-3-(pyrrolidin-1-yl)propan-2-yl)acetamide]
- IC50: ≤ 100 nM

SMILES: O=C(Cc1cccc(Oc2ccccc2)c1)N[C@H](CN1CCCC1)[C@H](O)c1ccc2c(c1)OCCO2 [Compound 86, N-((1R,2R)-1-(2,3-dihydrobenzo[b][1,4]dioxin-6-yl)-1-hydroxy-3-(pyrrolidin-1-yl)propan-2-yl)-2-(3-phenoxyphenyl)acetamide]
- IC50: ≤ 100 nM

SMILES: O=C(COc1ccc(Cl)c(Cl)c1)N[C@H](CN1CCCC1)[C@H](O)c1ccc2c(c1)OCCO2 [Compound 87, 2-(3,4-dichlorophenoxy)-N-((1R,2R)-1-(2,3-dihydrobenzo[β][1,4]dioxin-6-yl)-1-hydroxy-3-(pyrrolidin-1-yl)propan-2-yl)acetamide]
- IC50: ≤ 100 nM

SMILES: O=C(N[C@H](CN1CCCC1)[C@H](O)c1ccc2c(c1)OCCO2)c1cc(-c2cccs2)on1 [Compound 90, N-((1R,2R)-1-(2,3-dihydrobenzo[β][1,4]dioxin-6-yl)-1-hydroxy-3-(pyrrolidin-1-yl)propan-2-yl)-5-(thiophen-2-yl)isoxazole-3-carboxamide]
- IC50: 100 to 1000 nM

SMILES: COc1ccc(CCC(=O)N[C@H](CN2CCCC2)[C@H](O)c2ccc3c(c2)OCCO3)cc1Cl [Compound 92, 3-(3-chloro-4-methoxyphenyl)-N-((1R,2R)-1-(2,3-dihydrobenzo[β][1,4]dioxin-6-yl)-1-hydroxy-3-(pyrrolidin-1-yl)propan-2-yl)propanamide]
- IC50: ≤ 100 nM

SMILES: O=C(CCc1ccc(C(F)(F)F)cc1)N[C@H](CN1CCCC1)[C@H](O)c1ccc2c(c1)OCCO2 [Compound 96, N-((1R,2R)-1-(2,3-dihydrobenzo[β][1,4]dioxin-6-yl)-1-hydroxy-3-(pyrrolidin-1-yl)propan-2-yl)-3-(4-(trifluoromethyl)phenyl)propanamide]
- IC50: ≤ 100 nM

SMILES: O=C(CCCc1nc2ccccc2s1)NC(CN1CCCC1)[C@H](O)c1ccc2c(c1)OCCO2 (stereo partly drawn) [Compound 101, 4-(benzo[d]thiazol-2-yl)-N-((1R,2R)-1-(2,3-dihydrobenzo[β][1,4]dioxin-6-yl)-1-hydroxy-3-(pyrrolidin-1-yl)propan-2-yl)butanamide]
- IC50: ≤ 100 nM

SMILES: O=C(CCCCCNS(=O)(=O)c1ccc2c(c1)OCCO2)N[C@H](CN1CCCC1)[C@H](O)c1ccc2c(c1)OCCO2 [Compound 102, N-((1R,2R)-1-(2,3-dihydrobenzo[β][1,4]dioxin-6-yl)-1-hydroxy-3-(pyrrolidin-1-yl)propan-2-yl)-6-(2,3-dihydrobenzo[β][1,4]dioxine-6-sulfonamido)hexanamide]
- IC50: 1000 to 3000 nM

SMILES: O=C(Cc1ccc(OC(F)(F)F)cc1)N[C@H](CN1CCCC1)[C@H](O)c1ccc2c(c1)OCCO2 [Compound 103, N-((1R,2R)-1-(2,3-dihydrobenzo[β][1,4]dioxin-6-yl)-1-hydroxy-3-(pyrrolidin-1-yl)propan-2-yl)-2-(4-(trifluoromethoxy)phenyl)acetamide]
- IC50: ≤ 100 nM

SMILES: O=C(CCCCNC(=O)c1ccccc1)N[C@H](CN1CCCC1)[C@H](O)c1ccc2c(c1)OCCO2 [Compound 104, N-(5-((1R,2R)-1-(2,3-dihydrobenzo[β][1,4]dioxin-6-yl)-1-hydroxy-3-(pyrrolidin-1-yl)propan-2-ylamino)-5-oxopentyl)benzamide]
- IC50: 100 to 1000 nM
